Target: T1, CCR2b (Homo sapiens, UniProt P41597)
T1 construct: host or cells: AequoScreen CCR2b cells
T1 sequence (P41597 1-360 isoform P41597-2): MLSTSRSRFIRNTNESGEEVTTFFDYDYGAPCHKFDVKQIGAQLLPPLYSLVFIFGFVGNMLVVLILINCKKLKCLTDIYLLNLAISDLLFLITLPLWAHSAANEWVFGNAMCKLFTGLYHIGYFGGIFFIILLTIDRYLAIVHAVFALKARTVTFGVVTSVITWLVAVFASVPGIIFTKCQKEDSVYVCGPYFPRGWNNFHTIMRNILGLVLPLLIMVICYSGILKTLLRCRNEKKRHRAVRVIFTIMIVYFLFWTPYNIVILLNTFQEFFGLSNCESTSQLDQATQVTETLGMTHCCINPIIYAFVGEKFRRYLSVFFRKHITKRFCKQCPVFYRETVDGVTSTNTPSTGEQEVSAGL
Assay: AequoScreen CCR2b calcium flux assay, antagonist mode against reference agonist MCP-1
Type: cell-based
Conditions: AequoScreen CCR2b (FAST-060A) cells; inhibition of reference agonist MCP-1 at its EC80; read-out: IC50 (μM) Ca^++flux
Method: The biological activity of the compounds described herein can be evaluated using assays known in the art, such as the AequoScreen™ assay.
AequoScreen™ CCR2b (FAST-060A) cells grown to mid-log phase in culture media without antibiotics are detached with PBS-EDTA, centrifuged and resuspended in assay buffer (DMEM/HAM's F12 with HEPES, without phenol red+0.1% BSA protease free) at a concentration of 1×10^6 cells/mL. Cells are incubated at room temperature for at least 4 hours with coelenterazine h. Dose response curves are performed before testing. The reference agonist is MCP-1.
For agonist testing, 50 μL of cell suspension is mixed with 50 μL of test compound in a 96-well plate. The resulting emission of light is recorded using a Hamamatsu Functional Drug Screening System 6000 (FDSS 6000).
Following an incubation of 15 minutes after the first injection, 100 μL of the resulting cell suspension containing the test compound is mixed with 100 μL of the reference agonist in the 96 well test plate. The resulting emission of light is recorded using the same luminometer as for agonist testing.
Agonist activity of a test compound can be expressed as a percentage of the activity of the reference agonist at its EC100 concentration. Antagonist activity of a test compound can be expressed as a percentage of the inhibition of reference agonist activity at its EC80 concentration.

| Compound | IC50 |
| --- | --- |
| 3-Ethyl-6-((3-(methoxymethyl)-3-(3-(trifluoromethyl)-5,6,7,8-tetrahydro-1,6-naphthyridine-6-carbonyl)pyrrolidin-1-yl)methyl)benzo[d]oxazol-2(3H)-one [Example 42] | < 0.2 µM |
| 5-Bromo-6-((3-(methoxymethyl)-3-(3-(trifluoromethyl)-5,6,7,8-tetrahydro-1,6-naphthyridine-6-carbonyl)pyrrolidin-1-yl)methyl)-3-methylbenzo[d]oxazol-2(3H)-one [Example 43] | < 0.2 µM |
| Cn1c(=O)ccc2ccc(CN3CCC(CC4CC4)(C(=O)N4CCc5ncc(C(F)(F)F)cc5C4)C3)cc21 (single isomer, unassigned) [Example 4, 5 (Enantiomer I)] | < 0.2 µM |
| Cn1c(=O)ccc2ccc(CN3CCC(CC4CC4)(C(=O)N4CCc5ncc(C(F)(F)F)cc5C4)C3)cc21 (single isomer, unassigned) [Example 4, 5 (Enantiomer II)] | < 0.2 µM |
| COCC1(C(=O)N2CCc3ncc(C(F)(F)F)cc3C2)CCN(Cc2ccc3ccc(=O)n(C)c3c2)C1 (single isomer, unassigned) [Example 26, 27 (Enantiomer I)] | < 0.2 µM |
| COCC1(C(=O)N2CCc3ncc(C(F)(F)F)cc3C2)CCN(Cc2ccc3ccc(=O)n(C)c3c2)C1 (single isomer, unassigned) [Example 26, 27 (Enantiomer II)] | > 1 µM |
| COCC1(C(=O)N2CCc3ncc(C(F)(F)F)cc3C2)CCN(C2CCC(O)(c3ccc(OC)nc3)CC2)C1 (single isomer, unassigned) [Example 30, 31 (Isomer I), (1-(4-Hydroxy-4-(6-methoxypyridin-3-yl)cyclohexyl)-3-(methoxymethyl)pyrrolidin-3-yl)(3-(trifluoromethyl)-7,8-dihydro-1,6-naphthyridin-6(5H)-yl)methanone] | < 0.2 µM |
| COCC1(C(=O)N2CCc3ncc(C(F)(F)F)cc3C2)CCN(C2CCC(O)(c3ccc(OC)nc3)CC2)C1 (single isomer, unassigned) [Example 30, 31 (Isomer II), (1-(4-Hydroxy-4-(6-methoxypyridin-3-yl)cyclohexyl)-3-(methoxymethyl)pyrrolidin-3-yl)(3-(trifluoromethyl)-7,8-dihydro-1,6-naphthyridin-6(5H)-yl)methanone] | > 1 µM |
| COCC1(C(=O)N2CCc3ncc(C(F)(F)F)cc3C2)CCN(Cc2ccc3oc(=O)n(C)c3c2)C1 (single isomer, unassigned) [Example 40, 41 (Enantiomer I)] | < 0.2 µM |
| COCC1(C(=O)N2CCc3ncc(C(F)(F)F)cc3C2)CCN(Cc2ccc3oc(=O)n(C)c3c2)C1 (single isomer, unassigned) [Example 40, 41 (Enantiomer II)] | 0.2 to 1 µM |
| COCC1(C(=O)N2CCc3ncc(C(F)(F)F)cc3C2)CCN(C2CCC(c3ccc(OC)nc3)CC2)C1 (single isomer, unassigned) [Example 50, 51 (Isomer I), (3-(Methoxymethyl)-1-(4-(6-methoxypyridin-3-yl)cyclohexyl)pyrrolidin-3-yl)(3-(trifluoromethyl)-7,8-dihydro-1,6-naphthyridin-6(5H)-yl)methanone] | < 0.2 µM |
| COCC1(C(=O)N2CCc3ncc(C(F)(F)F)cc3C2)CCN(C2CCC(c3ccc(OC)nc3)CC2)C1 (single isomer, unassigned) [Example 50, 51 (Isomer II), (3-(Methoxymethyl)-1-(4-(6-methoxypyridin-3-yl)cyclohexyl)pyrrolidin-3-yl)(3-(trifluoromethyl)-7,8-dihydro-1,6-naphthyridin-6(5H)-yl)methanone] | < 0.2 µM |
| COCC1(C(=O)N2CCc3ncc(C(F)(F)F)cc3C2)CCN(C2CCC(c3cncnc3)CC2)C1 (single isomer, unassigned) [Example 54, 55 (Isomer II), (3-(Methoxymethyl)-1-(4-(pyrimidin-5-yl)cyclohexyl)pyrrolidin-3-yl)(3-(trifluoromethyl)-7,8-dihydro-1,6-naphthyridin-6(5H)-yl)methanone] | 0.2 to 1 µM |
| COCC1(C(=O)N2CCc3ncc(C(F)(F)F)cc3C2)CCN(C2CCC(c3ccc(F)cc3)CC2)C1 (single isomer, unassigned) [Example 56, 57 (Isomer I), (1-(4-(4-Fluorophenyl)cyclohexyl)-3-(methoxymethyl)pyrrolidin-3-yl)(3-(trifluoromethyl)-7,8-dihydro-1,6-naphthyridin-6(5H)-yl)methanone] | < 0.2 µM |
| CC(C)CC1(C(=O)N2CCc3ncc(C(F)(F)F)cc3C2)CCN(Cc2ccc3ccc(=O)n(C)c3c2)CC1 [Example 1, 7-((4-Isobutyl-4-(3-(trifluoromethyl)-5,6,7,8-tetrahydro-1,6-naphthyridine-6-carbonyl)piperidin-1-yl)methyl)-1-methylquinolin-2(1H)-one] | 0.2 to 1 µM |
| COc1cc(CN2CCC(CC(C)C)(C(=O)N3CCc4ncc(C(F)(F)F)cc4C3)CC2)ccc1O [Example 2, (1-(4-Hydroxy-3-methoxybenzyl)-4-isobutylpiperidin-4-yl)(3-(trifluoromethyl)-7,8-dihydro-1,6-naphthyridin-6(5H)-yl)methanone] | > 1 µM |
| Cn1c(=O)ccc2ccc(CN3CCC(CC4CC4)(C(=O)N4CCc5ncc(C(F)(F)F)cc5C4)C3)cc21 (centres unmarked) [Example 3, 7-((3-(Cyclopropylmethyl)-3-(3-(trifluoromethyl)-5,6,7,8-tetrahydro-1,6-naphthyridine-6-carbonyl)pyrrolidin-1-yl)methyl)-1-methylquinolin-2(1H)-one] | < 0.2 µM |
| COc1cc(CN2CCC(CC3CC3)(C(=O)N3CCc4ncc(C(F)(F)F)cc4C3)C2)ccc1O (centres unmarked) [Example 6, (1-(4-Hydroxy-3-methoxybenzyl)-3-(cyclopropylmethyl)pyrrolidin-3-yl)(3-(trifluoromethyl)-7,8-dihydro-1,6-naphthyridin-6(5H)-yl)methanone] | 0.2 to 1 µM |
| O=C(N1CCc2ncc(C(F)(F)F)cc2C1)C1(CC2CC2)CCN(Cc2ccc(O)c(F)c2)C1 (centres unmarked) [Example 7, (3-(Cyclopropylmethyl)-1-(3-fluoro-4-hydroxybenzyl)pyrrolidin-3-yl)(3-(trifluoromethyl)-7,8-dihydro-1,6-naphthyridin-6(5H)-yl)methanone] | > 1 µM |
| O=C(N1CCc2ncc(C(F)(F)F)cc2C1)C1(CC2CC2)CCN(CC2CCOCC2)C1 (centres unmarked) [Example 8, (3-(Cyclopropylmethyl)-1-((tetrahydro-2H-pyran-4-yl)methyl)pyrrolidin-3-yl)(3-(trifluoromethyl)-7,8-dihydro-1,6-naphthyridin-6(5H)-yl)methanone] | 0.2 to 1 µM |
| CC1(C)CC(CN2CCC(CC3CC3)(C(=O)N3CCc4ncc(C(F)(F)F)cc4C3)C2)CCO1 (centres unmarked) [Example 9, (3-(Cyclopropylmethyl)-1-((2,2-dimethyltetrahydro-2H-pyran-4-yl)methyl)pyrrolidin-3-yl)(3-(trifluoromethyl)-7,8-dihydro-1,6-naphthyridin-6(5H)-yl)methanone] | 0.2 to 1 µM |
| COc1cc2c(cc1CN1CCC(CC3CC3)(C(=O)N3CCc4ncc(C(F)(F)F)cc4C3)C1)OC(C)C2 (centres unmarked) [Example 10, (3-(Cyclopropylmethyl)-1-((5-methoxy-2-methyl-2,3-dihydrobenzofuran-6-yl)methyl)pyrrolidin-3-yl)(3-(trifluoromethyl)-7,8-dihydro-1,6-naphthyridin-6(5H)-yl)methanone] | > 1 µM |
| Cn1c(=O)sc2ccc(CN3CCC(CC4CC4)(C(=O)N4CCc5ncc(C(F)(F)F)cc5C4)C3)cc21 (centres unmarked) [Example 11, 5-((3-(Cyclopropylmethyl)-3-(3-(trifluoromethyl)-5,6,7,8-tetrahydro-1,6-naphthyridine-6-carbonyl)pyrrolidin-1-yl)methyl)-3-methylbenzo[d]thiazol-2(3H)-one] | < 0.2 µM |
| O=C(N1CCc2ncc(C(F)(F)F)cc2C1)C1(CC2CC2)CCN(Cc2ccc3sc(=O)[nH]c3c2)C1 (centres unmarked) [Example 12, 5-((3-(Cyclopropylmethyl)-3-(3-(trifluoromethyl)-5,6,7,8-tetrahydro-1,6-naphthyridine-6-carbonyl)pyrrolidin-1-yl)methyl)benzo[d]thiazol-2(3H)-one] | 0.2 to 1 µM |
| O=C(N1CCc2ncc(C(F)(F)F)cc2C1)C1(CC2CC2)CCN(Cc2ccc3ccc(=O)[nH]c3c2)C1 (centres unmarked) [Example 15, 7-((3-(Cyclopropylmethyl)-3-(3-(trifluoromethyl)-5,6,7,8-tetrahydro-1,6-naphthyridin-6-carbonyl)pyrrolidin-1-yl)methyl)quinolin-2(1H)-one] | > 1 µM |
| CC(c1ccc2c(c1)n(C)c(=O)n2C)N1CCC(CC2CC2)(C(=O)N2CCc3ncc(C(F)(F)F)cc3C2)C1 (centres unmarked) [Example 16, 5-(1-(3-(Cyclopropylmethyl)-3-(3-(trifluoromethyl)-5,6,7,8-tetrahydro-1,6-naphthyridine-6-carbonyl)pyrrolidin-1-yl)ethyl)-1,3-dimethyl-1H-benzo[d]imidazol-2(3H)-one] | > 1 µM |
